Test results taken from US20230285353A1, “A CHEMICAL COCKTAIL DRIVING EXPANSION OF MYOGENIC STEM CELLS” (The Regents of the University of California, priority 2020, published 2023).

Tested on: neonatal dermal fibroblast-like cells
Experiment: Screening small-molecules for myogenic induction (TnT+ cells)
Assay type: cell-based, mouse
Details: for induction of myogenic cells, factor added individually to FR: basic medium with 20 μM F and R, bFGF 50 ng/ml or AA 50 μg/ml
Method: The next day the original medium was replaced with a screening medium containing small-molecule cocktails: KnockOut DMEM (Thermo Fisher Scientific), 10% knockout serum replacement (Thermo Fisher Scientific), 10% FBS (Hyclone, Inc.), 2 mM GlutaMAX (Thermo Fisher Scientific), 1% nonessential amino acids (Thermo Fisher Scientific), 1% penicillin-streptomycin (Thermo Fisher Scientific) and 20 ng/ml bFGF (Stemgent) containing the various small molecules, including valproic acid ([…]), tranylcypromine (T, 5 μM), forskolin (F, 10 μM), and 5-aza-2'deoxycytidine (5-Aza) (5-aza, 5 μM). The medium was changed once every 2-3 days. After optimizing the cocktail of small molecules and concentrations, the screening medium was replaced with Fb medium for further screening of additional candidates that may improve myogenic efficiency, including ascorbic acid (50 μg/ml, Sigma), BMP4 (20 ng/ml, Stemgent), Insulin (10 μg/ml, Stemgent), IGF-1 (50 ng/ml, R&D Systems), PDGF (50 ng/ml, R&D Systems), and bFGF (50 ng/ml, Stemgent Inc.). For cell immunostaining, cells were fixed in 4% paraformaldehyde for 15 minutes and permeabilized with 0.5% Triton-X 100 in PBS for 15 minutes. Cells were then blocked with 5% donkey serum for 1 hour and incubated overnight at 4° C. with primary antibodies (diluted in 5% donkey serum), including TnT (mouse mAb, DSHB), Myh1E (MF 20, mouse mAb, DSHB), Myh2 (SC-71, mouse mAb, DSHB), Myh3 (F1.652, mouse mAb, DSHB), Myh4 (BF-F3, mouse mAb, DSHB), Myh7 (BA-D5, mouse mAb, DSHB), Myh8 (Rabbit pAb, Thermo Fisher Scientific, PA5-72846), […]7) (dystrophin, mouse mAb, DSHB), MyoD (mouse mAb, DSHB), MyoG (mouse mAb, DSHB), Pax7 (mouse mAb, DSHB), Sox 10 (goat pAb, R&D Systems, AF2864), Ki 67 (rabbit mAb, Abcam, ab16667), FSP1 (rabbit mAb, Sigma, 07-2274), CD 90.2-FITC (rat mAb, Thermo Fisher Scientific, 11-0903-81), P75 (rabbit pAb, Abcam, ab8874) and PDGFR-α (rat mAb, Thermo Fisher Scientific, 13-1401-82). Then appropriate Alexa Fluor 488- or Alexa Fluor 546- or Alexa Fluor 647-conjugated secondary antibodies (Thermo Fisher Scientific) were used for 1 hour at room temperature.

## Nc1ncn([C@H]2C[C@H](O)[C@@H](CO)O2)c(=O)n1 [5-Aza, 5-aza-2′deoxycytidine]
5-Aza treatment of dermal cells
  induction of TnT+ cells: did not show any significant induction

## O=C1O[C@H]([C@@H](O)CO)C(O)=C1O [AA, ascorbic acid]
  induction of myogenic cells, factor added individually to FR: significantly enhanced

## Cc1cccc(-c2[nH]ncc2-c2ccc3ncccc3n2)n1 [R, RepSox]
F or R alone
  efficiency of CiMC expansion from dermal cells with single agent: almost negligible

## basic fibroblast growth factor [bFGF]
  induction of myogenic cells, factor added individually to FR: significantly enhanced
